The results in this text go back to patent publication US12521399B2, “Compound as voltage-gated sodium channel inhibitor” (Guangzhou Fermion Technology Co., Ltd., priority 2022, dated 2026).

Molecules are shown by their SMILES.

The target in data set [1] is T1, human Nav1.8 ion channel stably expressed by CHO cells (Homo sapiens, UniProt Q9Y5Y9).
T1 construct: expressed in transfected cells
Put plainly: Blocking activity on sodium ion channel 1.8 (Nav1.8), manual whole-cell patch clamp. In kind it is cell-based. To be noted: Nav1.8 peak sodium current; for inhibition at 0.01 µM: 10 nM compound, read-out: Inhibition rate (%) @ 10 nM; for inhibition at 0.1 µM: 100 nM compound, read-out: Inhibition rate (%) @ 100 nM. The protocol:
Test Example A: Blocking activity of the compound of the present invention on sodium ion channel 1.8 (Nav1.8)
Experimental objective: to determine the rate of inhibition of the compound on the human Nav1.8 ion channel stably expressed by CHO cells
The compound was dissolved using DMSO to prepare a stock solution. The stock solution was diluted with an extracellular fluid (140 mM NaCl, 3.5 mM KCl, 1 mM MgCl2, 2 mM CaCl2), 10 mM D-glucose, 10 mM HEPES, 1.25 mM NaH2PO4 2H2O, pH=7.4 (NaOH)) to particular concentrations to be used in manual patch clamp testing.
A capillary glass tube was stretched to form a recording electrode using a microelectrode puller. A microelectrode manipulator was operated under an inverted microscope to contact the recording electrode to the cells, and negative suction pressure was applied to form a GQ seal. Once the GQ seal was formed, rapid capacitance compensation was performed, and then the negative pressure was continued to break the cell membrane, forming a whole cell recording mode. Slow capacitance was compensated for, and the film capacitance and series resistance were recorded. No leakage compensation was applied. Once the Nav1.8 current recorded in the whole cell was stabilized, administration of the compound was started. The compound was allowed to act at the first concentration for 5 min (or until the electric current stabilized), and then the second concentration was tested. For each test compound, two concentrations were tested.
The voltage stimulation protocol for whole-cell patch clamp recording of Nav1.8 sodium current was as follows: once the whole cell seal was formed, the cellular voltage was clamped at −120 mV for 30 ms. The clamping voltage was depolarized to 0 mV for 50 ms, and then the voltage was restored to −50 mV (for the specific voltage, reference was made to the half inactivation voltage in IV testing) for 8 s. […] Data acquisition was repeated every 20 s. The effect of the compound on the peak value of the sodium current was observed. The experimental data was collected by an EPC-10 amplifier (HEKA) and was stored in PatchMaster (HEKA) software.

Data set [2] is described as follows: Pharmacokinetic evaluation by intravenous injection or gavage in rats. To be noted: Sprague-Dawley (SD), rat, in vivo. On the procedure: Test Example B: Quantitative pharmacokinetic evaluation of the compound of the present invention administered by intravenous injection or gavage in rats.
The present inventors conducted pharmacokinetic evaluation of the compound of the present invention in rats.
The compound of the present invention was administered to the test animals as a solution of 5% DMSO+5% tween 80+90% physiological saline solution. The animals were fasted for 12 hours prior to the administration, but had free access to water. For the intravenous injection administration group, the administration dose was 1 mg/kg; for gavage administration, the administration dose was 10 mg/kg. Following administration, blood was intravenously collected from the animals (approximately 0.3 mL of blood) at the following time points: 0.083 h, 0.25 h, 0.5 h, 1.0 h, 2.0 h, 4.0 h, 8.0 h, and 24 h. The blood collection tubes previously had EDTA-K2 added thereto as an anticoagulant. Each blood sample was centrifuged at 6800 g at a low temperature for 6 minutes, and plasma was collected and stored at −80° C.
Sample preparation for LC-MS/MS assay: 20 μL of the plasma sample was subjected to protein precipitation using 400 μL of methanol containing 100 ng/mL of IS (tolbutamide). The mixture was vortexed for 1 minute and then centrifuged at 18000 g for 7 minutes. 400 μL of the supernatant was transferred to a 96-well plate. 2 μL of the supernatant were subjected to LC-MS/MS analysis.

T1 sequence (Q9Y5Y9 whole entry): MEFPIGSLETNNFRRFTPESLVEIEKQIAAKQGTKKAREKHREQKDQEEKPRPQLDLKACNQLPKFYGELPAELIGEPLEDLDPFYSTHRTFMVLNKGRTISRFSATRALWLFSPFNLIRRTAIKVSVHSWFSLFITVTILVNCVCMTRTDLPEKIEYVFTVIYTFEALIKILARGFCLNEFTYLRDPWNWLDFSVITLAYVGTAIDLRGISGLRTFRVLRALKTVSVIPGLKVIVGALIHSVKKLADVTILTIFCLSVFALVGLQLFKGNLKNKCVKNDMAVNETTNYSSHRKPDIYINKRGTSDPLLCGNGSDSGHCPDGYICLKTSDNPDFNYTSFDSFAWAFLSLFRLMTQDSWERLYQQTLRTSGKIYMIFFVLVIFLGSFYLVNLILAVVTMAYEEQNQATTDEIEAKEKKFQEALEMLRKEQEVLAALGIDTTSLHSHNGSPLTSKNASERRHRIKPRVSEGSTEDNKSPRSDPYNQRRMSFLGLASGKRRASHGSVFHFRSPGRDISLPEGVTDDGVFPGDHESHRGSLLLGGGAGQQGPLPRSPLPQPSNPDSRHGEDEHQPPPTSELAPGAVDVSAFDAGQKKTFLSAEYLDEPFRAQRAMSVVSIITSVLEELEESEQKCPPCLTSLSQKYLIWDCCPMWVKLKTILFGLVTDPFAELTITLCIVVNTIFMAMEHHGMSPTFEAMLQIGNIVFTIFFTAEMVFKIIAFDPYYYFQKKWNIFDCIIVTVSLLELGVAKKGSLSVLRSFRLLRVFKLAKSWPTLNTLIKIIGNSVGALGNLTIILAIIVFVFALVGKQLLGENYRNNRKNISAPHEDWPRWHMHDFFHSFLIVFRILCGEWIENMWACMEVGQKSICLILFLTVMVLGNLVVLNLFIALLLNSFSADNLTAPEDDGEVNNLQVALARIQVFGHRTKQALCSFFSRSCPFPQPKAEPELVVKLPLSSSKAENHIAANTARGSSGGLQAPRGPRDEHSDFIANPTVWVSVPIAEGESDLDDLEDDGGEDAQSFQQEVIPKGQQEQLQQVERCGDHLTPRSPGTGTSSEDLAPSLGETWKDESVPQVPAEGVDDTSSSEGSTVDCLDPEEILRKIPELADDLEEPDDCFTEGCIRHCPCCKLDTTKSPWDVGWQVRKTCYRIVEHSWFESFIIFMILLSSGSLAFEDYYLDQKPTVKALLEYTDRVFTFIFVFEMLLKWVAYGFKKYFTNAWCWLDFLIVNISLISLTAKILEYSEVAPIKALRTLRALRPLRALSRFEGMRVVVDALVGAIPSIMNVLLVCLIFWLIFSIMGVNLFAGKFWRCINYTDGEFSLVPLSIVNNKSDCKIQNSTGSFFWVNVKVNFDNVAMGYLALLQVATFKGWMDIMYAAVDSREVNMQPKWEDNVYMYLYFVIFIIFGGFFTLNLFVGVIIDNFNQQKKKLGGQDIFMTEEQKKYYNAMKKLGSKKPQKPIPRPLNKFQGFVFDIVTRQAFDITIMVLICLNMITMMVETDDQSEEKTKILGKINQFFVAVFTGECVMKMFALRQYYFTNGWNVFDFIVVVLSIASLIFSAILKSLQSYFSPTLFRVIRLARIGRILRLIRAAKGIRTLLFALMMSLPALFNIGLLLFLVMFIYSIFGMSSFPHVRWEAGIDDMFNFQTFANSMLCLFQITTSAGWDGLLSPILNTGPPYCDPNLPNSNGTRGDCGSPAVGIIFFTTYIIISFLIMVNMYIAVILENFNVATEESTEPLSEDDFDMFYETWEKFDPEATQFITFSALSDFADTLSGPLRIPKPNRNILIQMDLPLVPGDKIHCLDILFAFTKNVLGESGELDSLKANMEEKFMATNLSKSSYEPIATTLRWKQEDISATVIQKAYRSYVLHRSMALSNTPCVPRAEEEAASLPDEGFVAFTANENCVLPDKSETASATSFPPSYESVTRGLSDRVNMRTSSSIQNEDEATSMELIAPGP

By inhibition is commonly meant the change of the read-out against control, counted positive when it falls. Consider `Cc1cc(F)ccc1Oc1cc(C(F)(F)F)c(Cl)cc1C(=O)Nc1cnnc(S(C)(=N)=O)c1` (stereo not shown) [Compound 20, 5-chloro-2-(4-fluoro-2-methylphenoxy)-N-(6-(S-methyliminosulfonyl) 76 yridazine-4-yl)-4-(trifluoromethyl)benzamide], for which, in data set [1], the inhibition at 0.01 µM came out at 46.8% and the inhibition at 0.1 µM turned out to be 86.5%.

With `CCN1CC[C@@H](NS(=O)(=O)c2cc(NC(=O)c3cc(Cl)c(C(F)(F)F)cc3Oc3ccc(F)cc3C)ccn2)C1` [Compound 11], in data set [1], the inhibition at 0.01 µM amounted to 80.5% and the inhibition at 0.1 µM turned out to be 97.8%.

With `Cc1cc(F)ccc1Oc1cc(C(F)(F)F)c(Cl)cc1C(=O)Nc1ccnc(S(=O)(=O)NCC2CCNCC2)c1` [Compound 5, 5-chloro-2-(4-fluoro-2-methylphenoxy)-N-(2-(N-(piperidin-4-ylmethyl)sulfamoyl)pyridin-4-yl)-4-(trifluoromethyl)benzamide], in data set [1], the inhibition at 0.01 µM is 78.5% and the inhibition at 0.1 µM stood at 96.8%.

As to `CCN1CC[C@H](NS(=O)(=O)c2cc(NC(=O)c3cc(Cl)c(C(F)(F)F)cc3Oc3ccc(F)cc3C)ccn2)C1` [Compound 8], in data set [1], the inhibition at 0.01 µM was found to be 68.6% and the inhibition at 0.1 µM stood at 93%.

The AUC(0-t) is exposure summed from dosing to a finite time, without extrapolation to infinity. High values mean high exposure, low ones low exposure. The Cmax is the maximum level reached in the sampled fluid or tissue. Usually Tmax stands for the time at which the peak concentration occurs. As a reminder, the half-life is how long it takes for the measured level to halve. Low values mean fast loss, high ones slow loss. One may read the bioavailability as the share of a dose that reaches the circulation, judged against a reference dose that is usually intravenous. A higher bioavailability goes with good availability. As to `Cc1cc(F)ccc1Oc1cc(C(F)(F)F)c(Cl)cc1C(=O)Nc1ccnc(S(C)(=N)=O)c1` (stereo not shown) [Compound 13, 5-chloro-2-(4-fluoro-2-methylphenoxy)-N-(2-(S-methyliminosulfonyl)pyridin-4-yl)-4-(trifluoromethyl)benzamide], in data set [1], the inhibition at 0.01 µM was determined as 52.4% and the inhibition at 0.1 µM came to 97.2%. Further, in data set [2] (iv, 1 mg/kg), the AUC(0-t) came out at 2240 ng·h/mL, the Cmax turned out to be 496 ng/mL, the Tmax turned out to be 0.08 h and the Vd is 2.48 L/kg. In data set [2] (iv, 1 mg/kg), this compound had a clearance of 7.52 mL/min/kg and a half-life of 3.88 h. Further, in data set [2] (po, 10 mg/kg), the AUC(0-t) amounted to 18600 ng·h/mL, the Cmax was found to be 1840 ng/mL, the Tmax turned out to be 2.67 h and the bioavailability was found to be 83.2%. Also, the half-life in data set [2] (po, 10 mg/kg) is 3.85 h.

On to `[2H]C([2H])([2H])Oc1cc(F)ccc1Oc1cc(C(F)(F)F)c(Cl)cc1C(=O)Nc1ccc(F)c(S(C)(=N)=O)c1` (stereo not shown) [Compound 24, 5-chloro-2-(4-fluoro-2-(methoxy-d3)phenoxy)-N-(4-fluoro-3-(S-methyliminosulfonyl)phenyl)-4-(trifluoromethyl)benzamide], for which, in data set [1], the inhibition at 0.01 µM worked out at 83.9% and the inhibition at 0.1 µM was found to be 99%.

As for `Cc1cc(F)ccc1Oc1cc(C(F)(F)F)c(Cl)cc1C(=O)Nc1ccnc(S(=O)(=O)NC2CCNCC2)c1` [Compound 4, 5-chloro-2-(4-fluoro-2-methylphenoxy)-N-(2-(N-(piperidin-4-yl)sulfamoyl)pyridin-4-yl)-4-(trifluoromethyl)benzamide], in data set [1], the inhibition at 0.01 µM was determined as 84.9% and the inhibition at 0.1 µM is 96.1%.

As for `CCCN1CC[C@H](NS(=O)(=O)c2cc(NC(=O)c3cc(Cl)c(C(F)(F)F)cc3Oc3ccc(F)cc3C)ccn2)C1` [Compound 9, (S)-5-chloro-2-(4-fluoro-2-methylphenoxy)-N-(2-(N-(1-propylpyrrolidin-3-yl)sulfonamido)pyridin-4-yl)-4-(trifluoromethyl)benzamide], in data set [1], the inhibition at 0.01 µM came to 60.1% and the inhibition at 0.1 µM amounted to 95.2%.

With `CCCN1CC[C@@H](NS(=O)(=O)c2cc(NC(=O)c3cc(Cl)c(C(F)(F)F)cc3Oc3ccc(F)cc3C)ccn2)C1` [Compound 12, (R)-5-chloro-2-(4-fluoro-2-methylphenoxy)-N-(2-(N-(1-propylpyrrolidin-3-yl)sulfamoyl)pyridin-4-yl)-4-(trifluoromethyl)benzamide], in data set [1], the inhibition at 0.01 µM was determined as 71.5% and the inhibition at 0.1 µM is 97.9%.

Take `CS(=N)(=O)c1cc(NC(=O)c2cc(Cl)c(C(F)(F)F)cc2N2CCCC(F)(F)CC2)ccn1` (stereo not shown) [Compound 17, 5-chloro-2-(4,4-difluoroazepan-1-yl)-N-(2-(S-methyliminosulfonyl)pyridin-4-yl)-4-(trifluoromethyl)benzamide]: in data set [1], the inhibition at 0.01 µM turned out to be 71.9% and the inhibition at 0.1 µM came to 96.5%.

For `Cc1cc(F)ccc1Oc1cc(C(F)(F)F)c(Cl)cc1C(=O)Nc1ccnc(S(=O)(=O)N[C@@H]2CCNC2)c1` [Compound 2, (R)-5-chloro-2-(4-fluoro-2-methylphenoxy)-N-(2-(N-(pyrrolidin-3-yl)sulfamoyl)pyridin-4-yl)-4-(trifluoromethyl)benzamide], in data set [1], the inhibition at 0.01 µM came out at 84.5% and the inhibition at 0.1 µM came to 100%.

For `Cc1cc(F)ccc1Oc1cc(C(F)(F)F)c(Cl)cc1C(=O)Nc1ccnc(S(=O)(=O)NC[C@H]2CCNC2)c1` [Compound 7, (S)-5-chloro-2-(4-fluoro-2-methylphenoxy)-N-(2-(N-(pyrrolidin-3-ylmethyl)sulfamoyl)pyridin-4-yl)-4-(trifluoromethyl)benzamide], in data set [1], the inhibition at 0.01 µM was determined as 91.5% and the inhibition at 0.1 µM was found to be 97.1%.

On to `CS(=N)(=O)c1cc(NC(=O)c2cc(Cl)c(C(F)(F)F)cc2N2CCCC(F)(F)CC2)ccc1F` (stereo not shown) [Compound 27, 5-chloro-2-(4,4-difluoroazepan-1-yl)-N-(4-fluoro-3-(S-methyliminosulfonyl)phenyl)-4-(trifluoromethyl)benzamide], for which, in data set [1], the inhibition at 0.01 µM turned out to be 75.1% and the inhibition at 0.1 µM was found to be 96%.

On to `Cc1cc(F)ccc1Oc1cc(C(F)(F)F)c(Cl)cc1C(=O)Nc1ccnc(S(=O)(=O)N[C@H]2CCN(CCF)C2)c1` [Compound 10, (S)-5-chloro-2-(4-fluoro-2-methylphenoxy)-N-(2-(N-(1-(2-fluoroethyl)pyrrolidin-3-yl)sulfamoyl)pyridin-4-yl)-4-(trifluoromethyl)benzamide], for which, in data set [1], the inhibition at 0.01 µM worked out at 46.2% and the inhibition at 0.1 µM came to 83.4%.

Take `[2H]C([2H])([2H])Oc1cc(OC(F)(F)F)ccc1Oc1cc(C(F)(F)F)c(Cl)cc1C(=O)Nc1ccc(F)c(S(C)(=N)=O)c1` (stereo not shown) [Compound 25, 5-chloro-N-(4-fluoro-3-(S-methyliminosulfonyl)phenyl)-2-(2-(methoxy-d3)-4-(trifluoromethoxy)phenoxy)-4-(trifluoromethyl)benzamide]: in data set [1], the inhibition at 0.01 µM turned out to be 82% and the inhibition at 0.1 µM is 95.5%.

On to `CNCCNS(=O)(=O)c1cc(NC(=O)c2cc(Cl)c(C(F)(F)F)cc2Oc2ccc(F)cc2C)ccn1` [Compound 1, 5-chloro-2-(4-fluoro-2-methylphenoxy)-N-(2-(N-(2-(methylamino)ethyl)sulfamoyl)pyridin-4-yl)-4-(trifluoromethyl)benzamide], for which, in data set [1], the inhibition at 0.01 µM came out at 59.8% and the inhibition at 0.1 µM stood at 91.3%.

As for `[2H]C([2H])([2H])Oc1cc(OC(F)(F)F)ccc1Oc1cc(C(F)(F)F)c(Cl)cc1C(=O)Nc1ccnc(S(C)(=N)=O)c1` (stereo not shown) [Compound 15, 5-chloro-2-(2-(methoxy-d3)-4-(trifluoromethoxy)phenoxy)-N-(2-(S-methyliminosulfonyl)pyridin-4-yl)-4-(trifluoromethyl)benzamide], in data set [1], the inhibition at 0.01 µM came out at 86.3% and the inhibition at 0.1 µM was 99.3%.

`Cc1cc(F)ccc1Oc1cc(C(F)(F)F)c(Cl)cc1C(=O)Nc1ccnc(S(=O)(=O)NC[C@@H]2CCNC2)c1` [Compound 6, (R)-5-chloro-2-(4-fluoro-2-methylphenoxy)-N-(2-(N-(pyrrolidin-3-ylmethyl)sulfamoyl)pyridin-4-yl)-4-(trifluoromethyl)benzamide]: in data set [1], the inhibition at 0.01 µM came to 71.3% and the inhibition at 0.1 µM is 98.1%.

In the case of `Cc1cc(F)ccc1Oc1cc(C(F)(F)F)c(Cl)cc1C(=O)Nc1ccnc(S(=O)(=O)N[C@H]2CCNC2)c1` [Compound 3, (S)-5-chloro-2-(4-fluoro-2-methylphenoxy)-N-(2-(N-(pyrrolidin-3-yl)sulfamoyl)pyridin-4-yl)-4-(trifluoromethyl)benzamide], in data set [1], the inhibition at 0.01 µM came out at 92% and the inhibition at 0.1 µM is 98.4%.
